Measurements published in patent US11667649B2, “Heteroaromatic macrocyclic ether chemotherapeutic agents” (Nuvalent, Inc., priority 2020, dated 2023).

System: TPM3-NTRK1-wt IC50 / primary target (e.g. CD74-ROS1-wt) IC50, Ba/F3 cells
Assay: Cell assay TRKA selectivity (TRKA potency divided by primary target potency)
Assay type: cell-based
Conditions: for TPM3-NTRK1-wt/CD74-ROS1-G2032R: TRKA selectivity ratio: TPM3-NTRK1-wt IC50 / CD74-ROS1-G2032R IC50, Ba/F3 cells; for TPM3-NTRK1-wt/CD74-ROS1-wt: TRKA selectivity ratio: TPM3-NTRK1-wt IC50 / CD74-ROS1-wt IC50, Ba/F3 cells; for TPM3-NTRK1-wt/EML4-ALK-L1196M-G1202R: TRKA selectivity ratio: TPM3-NTRK1-wt IC50 / EML4-ALK-L1196M-G1202R IC50, Ba/F3 cells; for TPM3-NTRK1-wt/EML4-ALK-wt: TRKA selectivity ratio: TPM3-NTRK1-wt IC50 / EML4-ALK-wt IC50, Ba/F3 cells
Outline: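 Ratio of TRKA to primary-target cellular IC50 (e.g. TPM3-NTRK1-wt/CD74-ROS1-wt), grouped into bins A >30, B >10, C ≥1, D <1. Each IC50 came from engineered Ba/F3 fusion lines grown without IL-3, dosed for 72 h and read as CellTiter-Glo luminescence, with a four-parameter logistic fit.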

| SMILES | TPM3-NTRK1-wt/CD74-ROS1-G2032R | TPM3-NTRK1-wt/CD74-ROS1-wt | TPM3-NTRK1-wt/EML4-ALK-L1196M-G1202R | TPM3-NTRK1-wt/EML4-ALK-wt |
| --- | --- | --- | --- | --- |
| CCc1onc2c1-c1cnc(N)c(c1)O[C@H](C)c1cc(F)ccc1-c1nn(C)cc1C2 [Example 152, (19R)-3-ethyl-16-fluoro-10,19-dimethyl-4,20-dioxa-5,10,11,23-tetraazapentacyclo[19.3.1.0^2,^6.0^8,^12.0^13,^18]pentacosa-1(24),2,5,8,11,13,15,17,21(25),22-decaen-22-amine] | A (bin A for very high selectivity, ratio>30-fold) | A (bin A for very high selectivity, ratio>30-fold) | C (bin C for moderate selectivity, ratio≥1) | A (bin A for very high selectivity, ratio>30-fold) |
| CCn1ncc2c1-c1cnc(N)c(c1)OCc1cc(F)ccc1-n1ncc(F)c1C2 [Example 48, 3-ethyl-9,16-difluoro-20-oxa-3,4,11,12,23-pentaazapentacyclo[19.3.1.0^2,^6.0^8,^12.0^13,^18]pentacosa-1(24),2(6),4,8,10,13,15,17,21(25),22-decaen-22-amine] | A (bin A for very high selectivity, ratio>30-fold) | A (bin A for very high selectivity, ratio>30-fold) | B (bin B for high selectivity, ratio>10-fold) | A (bin A for very high selectivity, ratio>30-fold) |
| CCn1nc(Cl)c2c1-c1cnc(N)c(c1)O[C@H](C)c1cc(F)ccc1-n1nc(C)cc1C2 [Example 76, (19R)-5-chloro-3-ethyl-16-fluoro-10,19-dimethyl-20-oxa-3,4,11,12,23-pentaazapentacyclo[19.3.1.0^2,^6.0^8,^12.0^13,^18]pentacosa-1(24),2(6),4,8,10,13,15,17,21(25),22-decaen-22-amine] | A (bin A for very high selectivity, ratio>30-fold) | A (bin A for very high selectivity, ratio>30-fold) | B (bin B for high selectivity, ratio>10-fold) | A (bin A for very high selectivity, ratio>30-fold) |
| CCn1ncc2c1-c1cnc(N)c(c1)O[C@H](C)c1cc(F)ccc1-c1c(cnn1C)C2 [Example 32, (19R)-3-ethyl-16-fluoro-11,19-dimethyl-20-oxa-3,4,10,11,23-pentaazapentacyclo[19.3.1.0^2,^6.0^8,^12.0^13,^18]pentacosa-1(24),2(6),4,8(12),9,13,15,17,21(25),22-decaen-22-amine] | A (bin A for very high selectivity, ratio>30-fold) | A (bin A for very high selectivity, ratio>30-fold) | C (bin C for moderate selectivity, ratio≥1) | B (bin B for high selectivity, ratio>10-fold) |
| CCn1ncc2c1-c1cnc(N)c(c1)OCc1cc(F)ccc1-c1nn(C)cc1C2 [Example 49, 3-ethyl-16-fluoro-10-methyl-20-oxa-3,4,10,11,23-pentaazapentacyclo[19.3.1.0^2,^6.0^8,^12.0^13,^18]pentacosa-1(24),2(6),4,8,11,13,15,17,21(25),22-decaen-22-amine] | A (bin A for very high selectivity, ratio>30-fold) | A (bin A for very high selectivity, ratio>30-fold) | B (bin B for high selectivity, ratio>10-fold) | A (bin A for very high selectivity, ratio>30-fold) |
| C[C@H]1Oc2cc(cnc2N)-c2c(cnn2CC(F)F)Cc2cc(C(F)(F)F)nn2-c2ccc(F)cc21 [Example 84, (19R)-3-(2,2-difluoroethyl)-16-fluoro-19-methyl-10-(trifluoromethyl)-20-oxa-3,4,11,12,23-pentaazapentacyclo[19.3.1.0^2,^6.0^8,^12.0^13,^18]pentacosa-1(24),2(6),4,8,10,13,15,17,21(25),22-decaen-22-amine] | A (bin A for very high selectivity, ratio>30-fold) | A (bin A for very high selectivity, ratio>30-fold) | C (bin C for moderate selectivity, ratio≥1) | A (bin A for very high selectivity, ratio>30-fold) |
| CCn1ncc2c1-c1cnc(N)c(c1)OC(C)c1cc(F)ccc1-c1ncncc1C2 (centres unmarked) [Example 42, 3-ethyl-17-fluoro-20-methyl-21-oxa-3,4,10,12,24-pentaazapentacyclo[20.3.1.0^2,^6.0^8,^13.0^14,^19]hexacosa-1(25),2(6),4,8(13),9,11,14,16,18,22(26),23-undecaen-23-amine] | A (bin A for very high selectivity, ratio>30-fold) | A (bin A for very high selectivity, ratio>30-fold) | B (bin B for high selectivity, ratio>10-fold) | A (bin A for very high selectivity, ratio>30-fold) |
| CCn1ncc2c1-c1cnc(N)c(c1)O[C@H](C)c1cc(F)ccc1-c1nc(C)cn1C2 [Example 45, (19R)-3-ethyl-16-fluoro-10,19-dimethyl-20-oxa-3,4,8,11,23-pentaazapentacyclo[19.3.1.0^2,^6.0^8,^12.0^13,^18]pentacosa-1(24),2(6),4,9,11,13,15,17,21(25),22-decaen-22-amine] | A (bin A for very high selectivity, ratio>30-fold) | A (bin A for very high selectivity, ratio>30-fold) | B (bin B for high selectivity, ratio>10-fold) | A (bin A for very high selectivity, ratio>30-fold) |
| CCn1ncc2c1-c1cnc(N)c(c1)OCc1cc(F)ccc1-n1nc(C(F)(F)F)cc1C2 [Example 92, 3-ethyl-16-fluoro-10-(trifluoromethyl)-20-oxa-3,4,11,12,23-pentaazapentacyclo[19.3.1.0^2,^6.0^8,^12.0^13,^18]pentacosa-1(24),2(6),4,8,10,13,15,17,21(25),22-decaen-22-amine] | A (bin A for very high selectivity, ratio>30-fold) | A (bin A for very high selectivity, ratio>30-fold) | C (bin C for moderate selectivity, ratio≥1) | C (bin C for moderate selectivity, ratio≥1) |
| CC1Oc2cc(cnc2N)-c2c(cnn2CC(F)F)Cn2ccnc2-c2ccc(F)cc21 (centres unmarked) [Example 40, 3-(2,2-difluoroethyl)-16-fluoro-19-methyl-20-oxa-3,4,8,11,23-pentaazapentacyclo[19.3.1.0^2,^6.0^8,^12.0^13,^18]pentacosa-1(24),2(6),4,9,11,13,15,17,21(25),22-decaen-22-amine] | A (bin A for very high selectivity, ratio>30-fold) | A (bin A for very high selectivity, ratio>30-fold) | A (bin A for very high selectivity, ratio>30-fold) | A (bin A for very high selectivity, ratio>30-fold) |
| CCc1nnn2c1-c1cnc(N)c(c1)O[C@H](C)c1cc(F)ccc1-c1nn(C)cc1C2 [Example 23, (19R)-3-ethyl-16-fluoro-10,19-dimethyl-20-oxa-4,5,6,10,11,23-hexaazapentacyclo[19.3.1.0^2,^6.0^8,^12.0^13,^18]pentacosa-1(24),2,4,8,11,13,15,17,21(25),22-decaen-22-amine] | A (bin A for very high selectivity, ratio>30-fold) | A (bin A for very high selectivity, ratio>30-fold) | C (bin C for moderate selectivity, ratio≥1) | A (bin A for very high selectivity, ratio>30-fold) |
| Cc1nc2c(s1)Cc1c(c(C#N)nn1C)-c1cnc(N)c(c1)OCc1cc(F)ccc1-2 [Example 115, 22-amino-16-fluoro-5,10-dimethyl-20-oxa-9-thia-4,5,11,23-tetraazapentacyclo[19.3.1.0^2,^6.0^8,^12.0^13,^18]pentacosa-1(24),2(6),3,8(12),10,13,15,17,21(25),22-decaene-3-carbonitrile] | A (bin A for very high selectivity, ratio>30-fold) | A (bin A for very high selectivity, ratio>30-fold) | B (bin B for high selectivity, ratio>10-fold) | A (bin A for very high selectivity, ratio>30-fold) |
| CCn1ncc2c1-c1cnc(N)c(c1)OCc1cc(F)ccc1-c1ncccc1C2 [Example 8, 3-ethyl-17-fluoro-21-oxa-3,4,12,24-tetraazapentacyclo[20.3.1.0^2,^6.0^8,^13.0^14,^19]hexacosa-1(25),2(6),4,8(13),9,11,14,16,18,22(26),23-undecaen-23-amine] | A (bin A for very high selectivity, ratio>30-fold) | A (bin A for very high selectivity, ratio>30-fold) | B (bin B for high selectivity, ratio>10-fold) | A (bin A for very high selectivity, ratio>30-fold) |
| C[C@H]1Oc2cc(cnc2N)-c2c(cnn2CC(F)F)Cc2cn(C)nc2-c2ccc(F)cc21 [Example 22, (19R)-3-(2,2-difluoroethyl)-16-fluoro-10,19-dimethyl-20-oxa-3,4,10,11,23-pentaazapentacyclo[19.3.1.0^2,^6.0^8,^12.0^13,^18]pentacosa-1(24),2(6),4,8,11,13,15,17,21(25),22-decaen-22-amine] | A (bin A for very high selectivity, ratio>30-fold) | A (bin A for very high selectivity, ratio>30-fold) | A (bin A for very high selectivity, ratio>30-fold) | A (bin A for very high selectivity, ratio>30-fold) |
